The text below walks through data of US6506772B1, “Substituted [1,2,4]triazolo[1,5a]pyridine derivatives with activity as adenosine receptor ligands” (Hoffmann-La Roche Inc., priority 2000, dated 2003).

Test [1] addresses T1, human adenosine A2A receptor (Homo sapiens, UniProt P29274).
T1 construct: expressed in transfected cells; host or cells: CHO cells, Semliki Forest virus expression system; membrane preparation
The test can be described thus: Human adenosine A2A receptor [3H]-SCH-58261 binding assay. Conditions: for Ki: affinity to human adenosine A2A receptor, read-out: Ki HA2A; for selectivity (A1/A2a): calculated ratio of the affinity to the HA1 receptor to the HA2a receptor. On the procedure:
Human Adenosine A2A Receptor
The human adenosine A2A receptor was recombinantly expressed in chinese hamster ovary (CHO) cells using the semliki forest virus expression system. Cells were harvested, washed twice by centrifugation, homogenized and again washed by centrifugation. The final washed membrane pellet was suspended in a Tris (50 mM) buffer containing 120 mM NaCl, 5 mM KCl, 2 mM CaCl2 and 10 MM MgCl2 (pH 7.4) (buffer A). […] Compounds were tested at 10 concentrations from 10 μM-0.3 nM. All assays were conducted in duplicate and repeated at least two times. Assay plates were incubated for 1 hour at room temperature before centrifugation and then bound ligand determined using a Packard Topcount scintillation counter. IC50 values were calculated using a non-linear curve fitting program and Ki values calculated using the Cheng-Prussoff equation.

The next test deals with T2, HA1 adenosine receptor (Homo sapiens, UniProt P30542).
T2 sequence (P30542 1-326): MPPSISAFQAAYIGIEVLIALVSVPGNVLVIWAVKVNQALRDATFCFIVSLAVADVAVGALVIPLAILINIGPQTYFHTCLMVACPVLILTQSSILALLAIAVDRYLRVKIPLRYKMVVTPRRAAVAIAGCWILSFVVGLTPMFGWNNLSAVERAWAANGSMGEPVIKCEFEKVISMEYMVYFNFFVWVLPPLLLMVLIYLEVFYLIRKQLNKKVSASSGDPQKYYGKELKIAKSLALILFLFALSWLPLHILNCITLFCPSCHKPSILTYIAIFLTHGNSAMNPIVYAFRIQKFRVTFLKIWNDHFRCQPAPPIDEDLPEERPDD
Briefly: Human adenosine A1 receptor affinity (Ki hA1). The format is binding.

The mark [2] stands for this setting: affinity to human adenosine A1 receptor.

Each structure is given as a SMILES string. Where two headings read alike, the source gives them in different places.

T1 sequence (P29274 whole entry): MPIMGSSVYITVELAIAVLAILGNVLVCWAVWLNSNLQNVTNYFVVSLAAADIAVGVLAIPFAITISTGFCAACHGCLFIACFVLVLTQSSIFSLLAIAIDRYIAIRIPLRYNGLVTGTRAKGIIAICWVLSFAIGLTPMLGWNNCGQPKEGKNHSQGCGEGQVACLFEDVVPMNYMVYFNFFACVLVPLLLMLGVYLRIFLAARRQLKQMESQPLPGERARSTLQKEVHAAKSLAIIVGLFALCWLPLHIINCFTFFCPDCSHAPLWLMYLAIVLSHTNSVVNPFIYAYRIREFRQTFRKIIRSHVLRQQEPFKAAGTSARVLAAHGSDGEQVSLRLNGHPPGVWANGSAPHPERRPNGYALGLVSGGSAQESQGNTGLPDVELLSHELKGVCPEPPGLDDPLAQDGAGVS

For orientation: Ki means a measure of affinity in units of concentration, obtained from inhibition or displacement. Turning to `CCN(C(=O)c1cc(N)n2nc(-c3ccc(C)s3)nc2c1)C1CCCCC1` [Example 24, 5-Amino-2-(5-methyl-thiophen-2-yl)-[1,2,4]triazolo[1,5-a]pyridine-7-carboxylic acid cyclohexyl-ethyl-amide], the Ki was 8.9 nM in test [1] and 247 nM at HA1 adenosine receptor (setting [2]). The “selectivity (A1/A2a)” value in test [1] is recorded as 27.8. For the compound `Nc1cc(C(=O)N2CCCC2)cc2nc(-c3nccs3)nn12` [Example 25, (5-Amino-2-thiazol-2-yl-[1,2,4]triazolo[1,5-a]pyridin-7-yl)-pyrrolidin-1-yl-methanone], in test [1], the Ki was 50.4 nM and the “selectivity (A1/A2a)” value was 61.5. At HA1 adenosine receptor (setting [2]), affinity was put at a Ki of 3100 nM.

With `CC(C)N(Cc1ccccc1)C(=O)c1cc(N)n2nc(-c3ccc(Br)o3)nc2c1` [Example 26, 5-Amino-2-(5-bromo-furan-2-yl)-[1,2,4]triazolo[1,5-a]pyridine-7-carboxylic acid benzyl-isopropyl-amide], the Ki in test [1] stood at 2.3 nM; at HA1 adenosine receptor (setting [2]) it was 30.1 nM. In test [1], the “selectivity (A1/A2a)” value was 13.0.

Regarding `CCN(Cc1ccccc1)C(=O)c1cc(N)n2nc(-c3ccccn3)nc2c1` [Example 29, 5-Amino-2-pyridin-2-yl-[1,2,4]triazolo[1,5-a]pyridine-7-carboxylic acid benzyl-ethyl-amide], in test [1], the Ki is 15.9 nM and the “selectivity (A1/A2a)” value is listed as 15.3. The compound also yielded a Ki at HA1 adenosine receptor (setting [2]) of 244 nM.

On to `Nc1cc(C(=O)N2CCc3ccccc3C2)cc2nc(-c3ccccn3)nn12` [Example 30, (5-Amino-2-pyridin-2-yl-[1,2,4]triazolo[1,5-a]pyridin-7-yl)-(3,4-dihydro-1H-isoquinolin-2-yl)-methanone], for which the Ki in test [1] worked out at 212 nM; at HA1 adenosine receptor (setting [2]), 2140 nM. Besides, the “selectivity (A1/A2a)” value in test [1] is recorded as 10.1. In the case of `CCN(C(=O)c1cc(N)n2nc(-c3ccccn3)nc2c1)C1CCCCC1` [Example 31, 5-Amino-2-pyridin-2-yl-[1,2,4]triazolo[1,5-a]pyridine-7-carboxylic acid cyclohexyl-ethyl-amide], in test [1], the Ki came to 49.6 nM and the “selectivity (A1/A2a)” value is 22.7. At HA1 adenosine receptor (setting [2]), this compound showed a Ki of 1130 nM. Take `CN(Cc1ccccc1)C(=O)c1cc(N)n2nc(-c3ccccn3)nc2c1` [Example 32, 5-Amino-2-pyridin-2-yl-[1,2,4]triazolo[1,5-a]pyridine-7-carboxylic acid benzyl-methyl-amide]: the Ki in test [1] turned out to be 28.6 nM; on HA1 adenosine receptor (setting [2]), 288 nM. Also, the “selectivity (A1/A2a)” value in test [1] was 10.1.

On to `CN(C(=O)c1cc(N)n2nc(-c3ccccn3)nc2c1)C1CCCCC1` [Example 33, 5-Amino-2-pyridin-2-yl-[1,2,4]triazolo[1,5-a]pyridine-7-carboxylic acid cyclohexyl-methyl-amide], for which, in test [1], the Ki worked out at 87 nM and the “selectivity (A1/A2a)” value is 13.5. At HA1 adenosine receptor (setting [2]), this compound returned an inhibition constant (Ki) of 1170 nM.

Regarding `Nc1cc(C(=O)N2CCCCC2)cc2nc(-c3ccccn3)nn12` [Example 34, (5-Amino-2-pyridin-2-yl-[1,2,4]triazolo[1,5-a]pyridin-7-yl)-piperidin-1-yl-methanone], in test [1], the Ki is 154 nM and the “selectivity (A1/A2a)” value is 38.8. This compound registered a Ki on HA1 adenosine receptor (setting [2]) of 5980 nM. `CCN(CC)C(=O)c1cc(N)n2nc(-c3ccccn3)nc2c1` [Example 35, 5-Amino-2-pyridin-2-yl-[1,2,4]triazolo[1,5-a]pyridine-7-carboxylic acid diethylamide]: the Ki in test [1] was 106 nM; on HA1 adenosine receptor (setting [2]), 2920 nM. For the same compound, in test [1], the “selectivity (A1/A2a)” value is on record as 27.5. Take `CCCCN(Cc1ccccc1)C(=O)c1cc(N)n2nc(-c3ccccn3)nc2c1` [Example 36, 5-Amino-2-pyridin-2-yl-[1,2,4]triazolo[1,5-a]pyridine-7-carboxylic acid benzyl-butyl-amide]: in test [1], the Ki was 13.1 nM and the “selectivity (A1/A2a)” value was 15.2. This compound registered a Ki on HA1 adenosine receptor (setting [2]) of 199 nM.

With `Nc1cc(C(=O)NCc2ccccc2Br)cc2nc(-c3ccccn3)nn12` [Example 38, 5-Amino-2-pyridin-2-yl-[1,2,4]triazolo[1,5-a]pyridine-7-carboxylic acid 2-bromo-benzylamide], the values for the Ki (in test [1]; on HA1 adenosine receptor (setting [2])) were 23.8 nM and 109 nM, respectively. Also, in test [1], the “selectivity (A1/A2a)” value is reported as 4.6. For the compound `Nc1cc(C(=O)NCc2ccccc2Cl)cc2nc(-c3ccccn3)nn12` [Example 39, 5-Amino-2-pyridin-2-yl-[1,2,4]triazolo[1,5-a]pyridine-7-carboxylic acid 2-chloro-benzylamide], in test [1], the Ki is 16.8 nM and the “selectivity (A1/A2a)” value is given as 4.2. The compound further came in with a Ki at HA1 adenosine receptor (setting [2]) of 69.8 nM. `Nc1cc(C(=O)N2CCCC2)cc2nc(-c3ccco3)nn12` [Example 106, (5-Amino-2-furan-2-yl-[1,2,4]triazolo[1,5-a]pyridin-7-yl)-pyrrolidin-1-yl-methanone] displayed a Ki on HA1 adenosine receptor (setting [2]) of 1730 nM. The same measure, in the same setting: the figure for `Nc1cc(C(=O)N2CCCCC2)cc2nc(-c3ccco3)nn12` [Example 107, (5-Amino-2-furan-2-yl-[1,2,4]triazolo[1,5-a]pyridin-7-yl)-piperidin-1-yl-methanone] is 2720 nM; for `Nc1cc(C(=O)N2CCCC2)cc2nc(-c3cccs3)nn12` [Example 128, (5-Amino-2-thiophen-2-yl-[1,2,4]triazolo[1,5-a]pyridin-7-yl)-pyrrolidin-1-yl-methanone] it is 1480 nM; for `CCCN(C)C(=O)c1cc(N)n2nc(-c3ccc(Br)o3)nc2c1` [Example 268, 5-Amino-2-(5-bromo-furan-2-yl)-[1,2,4]triazolo[1,5-a]pyridine-7-carboxylic acid methyl-propyl-amide] it is 275 nM. At HA1 adenosine receptor (setting [2]), `CC1CCCN1C(=O)c1cc(N)n2nc(-c3ccc(Br)o3)nc2c1` (stereo not drawn) [Example 270, [5-Amino-2-(5-bromo-furan-2-yl)-[1,2,4]triazolo[1,5-a]pyridin-7-yl]-(2-methyl-pyrrolidin-1-yl)-methanone] came in with a Ki of 286 nM. On the same count and under the same terms, to `CC1CCCN(C(=O)c2cc(N)n3nc(-c4ccc(Br)o4)nc3c2)C1` (stereo not drawn) [Example 295, [5-Amino-2-(5-bromo-furan-2-yl)-[1,2,4]triazolo[1,5-a]pyridin-7-yl]-(3,-methyl-piperidin-1-yl)-methanone] belongs 130 nM; to `Nc1cc(C(=O)N2CCSCC2)cc2nc(-c3ccc(Br)o3)nn12` [Example 297, [5-Amino-2-(5-bromo-furan-2-yl)-[1,2,4]triazolo[1,5-a]pyridin-7-yl]-thiomorpholin-4-yl-methanone], 253 nM; to `CN(CCc1ccccc1)C(=O)c1cc(N)n2nc(-c3ccc(Br)o3)nc2c1` [Example 306, 5-Amino-2-(5-bromo-furan-2-yl)-[1,2,4]triazolo[1,5-a]pyridine-7-carboxylic acid methyl-phenethyl-amide], 87.8 nM. Compound `CC1CCCCN1C(=O)c1cc(N)n2nc(-c3ccc(Br)o3)nc2c1` (stereo not drawn) [Example 336, [5-Amino-2-(5-bromo-furan-2-yl)-[1,2,4]triazolo[1,5-a]pyridin-7-yl]-(2-methyl-piperidin-1-yl)-methanone] came in with a Ki at HA1 adenosine receptor (setting [2]) of 65.7 nM. The compound `CCN(CCc1ccccn1)C(=O)c1cc(N)n2nc(-c3ccc(Br)o3)nc2c1` [Example 352, 5-Amino-2-(5-bromo-furan-2-yl)-[1,2,4]triazolo[1,5-a]pyridine-7-carboxylic acid ethyl-(2-pyridin-2-yl-ethyl)-amide] showed a Ki at HA1 adenosine receptor (setting [2]) of 144 nM. In the case of `CCN(CC)C(=O)C1CCCN(C(=O)c2cc(N)n3nc(-c4ccc(Br)o4)nc3c2)C1` (stereo not drawn) [Example 356, 1-[5-Amino-2-(5-bromo-furan-2-yl)-[1,2,4]triazolo[1,5-a]pyridin-7-carbonyl]-piperidine-3-carboxylic acid diethylamide], at HA1 adenosine receptor (setting [2]), the Ki is 1060 nM. `CN(C)C(=O)CN(C)C(=O)c1cc(N)n2nc(-c3ccc(Br)o3)nc2c1` [Example 384, 5-Amino-2-(5-bromo-furan-2-yl)-[1,2,4]triazolo[1,5-a]pyridine-7-carboxylic acid dimethylcarbamoylmethyl-methyl-amide] returned a Ki at HA1 adenosine receptor of 711 nM. Still for that read-out and setting: to `COC[C@@H]1CCCN1C(=O)c1cc(N)n2nc(-c3ccc(Br)o3)nc2c1` [Example 385, [5-Amino-2-(5-bromo-furan-2-yl)-[1,2,4]triazolo[1,5-a]pyridin-7-yl]-(S-2-methoxymethyl-pyrrolidin-1-yl)-methanone] belongs 616 nM. Regarding `COC[C@H]1CCCN1C(=O)c1cc(N)n2nc(-c3ccc(Br)o3)nc2c1` [Example 386, [5-Amino-2-(5-bromo-furan-2-yl)-[1,2,4]triazolo[1,5-a]pyridin-7-yl]-(R-2-methoxymethyl-pyrrolidin-1-yl)-methanone], the Ki on HA1 adenosine receptor was 292 nM. Still for that read-out and setting: the figure for `Nc1cc(C(=O)N2CCCC2)cc2nc(-c3ccccn3)nn12` [Example 410, (5-Amino-2-pyridin-2-yl-[1,2,4]triazolo[1,5-a]pyridin-7-yl)-pyrrolidin-1-yl-methanone] is 1450 nM.
